Results: patent US20220096487A1 (priority 2019, published 2022)
pEC50, pIC50: −log10 of the molar value. Several values for one entry are separate records, joined by “and”; a condition that tells them apart may be missing. Equal values may be shown once. Marks after values point to notes of the source that are not given here.

Assays:
OAT1 and OAT3 = test: In vivo effect on OAT1 and OAT3 substrates
[1] = Bacterial reverse mutation assay
[2] = Hypersensitivity reactions in Phase 3 clinical trials of dolutegravir; format: in vivo, human; settings: subjects receiving dolutegravir in Phase 3 clinical trials
Source text: Discontinue the combination immediately if signs or symptoms of hypersensitivity reactions develop (including, but not limited to, severe rash or rash accompanied by fever, general malaise, fatigue, muscle or joint aches, blisters or peeling of the skin, oral blisters or lesions, conjunctivitis, facial edema, hepatitis, eosinophilia, angioedema, difficulty breathing). Clinical status, including liver aminotransferases, should be monitored and appropriate therapy initiated.

[3] = test system: laboratory strains of wild-type HIV-1; test: Antiviral activity against laboratory strains in PBMCs and MT-4 cells; format: cell-based; settings: Human immunodeficiency virus 1, MT4
CYP2C19 = CYP2C19 (Homo sapiens, UniProt P33261); test: In vitro inhibition of CYP2C19; format: in vitro ADME; settings: did not inhibit
Sequence of CYP2C19 (P33261 whole entry): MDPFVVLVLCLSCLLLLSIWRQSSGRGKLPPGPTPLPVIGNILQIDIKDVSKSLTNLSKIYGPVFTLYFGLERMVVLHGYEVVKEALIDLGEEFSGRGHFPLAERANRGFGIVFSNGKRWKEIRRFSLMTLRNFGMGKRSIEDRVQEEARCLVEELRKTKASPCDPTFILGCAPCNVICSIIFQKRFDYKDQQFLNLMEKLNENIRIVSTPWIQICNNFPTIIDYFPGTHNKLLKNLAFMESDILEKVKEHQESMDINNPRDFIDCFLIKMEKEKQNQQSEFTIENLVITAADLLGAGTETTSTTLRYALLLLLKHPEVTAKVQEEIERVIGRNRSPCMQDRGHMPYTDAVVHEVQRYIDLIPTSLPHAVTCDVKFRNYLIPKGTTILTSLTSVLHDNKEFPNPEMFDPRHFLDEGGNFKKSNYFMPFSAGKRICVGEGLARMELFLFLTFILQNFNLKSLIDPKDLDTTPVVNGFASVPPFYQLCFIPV

HIV = test: Antiviral activity in combination with other antiviral agents; format: cell-based
[4] = test system: HIV-1 with integrase substitutions; test: Selection of dolutegravir-resistant viruses in cell culture; format: cell-based
[5] = Carcinogenicity studies in rats; settings: two-year study, doses up to 50 mg/kg, highest dose tested
P-gp = P-gp (Homo sapiens, UniProt P08183); test: In vitro inhibition of P-gp; format: in vitro ADME; settings: did not inhibit
Sequence of P-gp (P08183 whole entry): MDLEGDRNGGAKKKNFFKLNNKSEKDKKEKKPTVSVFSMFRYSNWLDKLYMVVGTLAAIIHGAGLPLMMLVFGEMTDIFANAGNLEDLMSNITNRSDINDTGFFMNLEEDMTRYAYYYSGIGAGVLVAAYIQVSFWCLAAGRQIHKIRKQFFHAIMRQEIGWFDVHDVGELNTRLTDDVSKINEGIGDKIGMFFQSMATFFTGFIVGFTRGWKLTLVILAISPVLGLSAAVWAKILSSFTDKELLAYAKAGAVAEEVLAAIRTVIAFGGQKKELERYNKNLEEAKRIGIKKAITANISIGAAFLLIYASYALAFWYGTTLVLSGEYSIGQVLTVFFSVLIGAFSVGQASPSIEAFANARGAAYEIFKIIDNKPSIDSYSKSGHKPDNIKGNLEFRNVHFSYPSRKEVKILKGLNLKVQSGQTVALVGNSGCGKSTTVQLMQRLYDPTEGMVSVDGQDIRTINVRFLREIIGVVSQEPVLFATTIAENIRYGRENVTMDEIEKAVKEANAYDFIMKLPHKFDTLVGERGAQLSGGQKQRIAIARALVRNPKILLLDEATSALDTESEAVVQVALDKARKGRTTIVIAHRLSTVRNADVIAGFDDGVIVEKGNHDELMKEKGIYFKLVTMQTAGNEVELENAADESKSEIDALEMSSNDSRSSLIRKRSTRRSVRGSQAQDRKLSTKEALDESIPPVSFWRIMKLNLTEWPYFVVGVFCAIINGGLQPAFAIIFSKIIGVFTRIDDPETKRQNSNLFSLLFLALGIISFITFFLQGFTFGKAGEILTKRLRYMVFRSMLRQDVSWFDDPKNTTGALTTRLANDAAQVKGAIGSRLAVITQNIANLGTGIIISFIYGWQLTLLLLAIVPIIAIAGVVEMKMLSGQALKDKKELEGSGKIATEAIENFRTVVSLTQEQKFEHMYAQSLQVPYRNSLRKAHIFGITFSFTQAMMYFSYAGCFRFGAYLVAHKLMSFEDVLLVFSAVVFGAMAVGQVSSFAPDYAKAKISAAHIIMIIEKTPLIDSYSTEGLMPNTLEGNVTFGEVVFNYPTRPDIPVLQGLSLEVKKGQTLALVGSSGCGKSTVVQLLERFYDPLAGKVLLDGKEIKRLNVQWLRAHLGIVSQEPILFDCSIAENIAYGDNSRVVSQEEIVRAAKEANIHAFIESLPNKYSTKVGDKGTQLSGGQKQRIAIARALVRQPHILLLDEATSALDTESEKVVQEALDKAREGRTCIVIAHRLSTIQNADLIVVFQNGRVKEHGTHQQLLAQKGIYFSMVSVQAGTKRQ

renal OCT2 = renal OCT2 (Homo sapiens, UniProt O15244); test: In vitro inhibition of renal OCT2; format: in vitro ADME
Sequence of renal OCT2 (O15244 whole entry): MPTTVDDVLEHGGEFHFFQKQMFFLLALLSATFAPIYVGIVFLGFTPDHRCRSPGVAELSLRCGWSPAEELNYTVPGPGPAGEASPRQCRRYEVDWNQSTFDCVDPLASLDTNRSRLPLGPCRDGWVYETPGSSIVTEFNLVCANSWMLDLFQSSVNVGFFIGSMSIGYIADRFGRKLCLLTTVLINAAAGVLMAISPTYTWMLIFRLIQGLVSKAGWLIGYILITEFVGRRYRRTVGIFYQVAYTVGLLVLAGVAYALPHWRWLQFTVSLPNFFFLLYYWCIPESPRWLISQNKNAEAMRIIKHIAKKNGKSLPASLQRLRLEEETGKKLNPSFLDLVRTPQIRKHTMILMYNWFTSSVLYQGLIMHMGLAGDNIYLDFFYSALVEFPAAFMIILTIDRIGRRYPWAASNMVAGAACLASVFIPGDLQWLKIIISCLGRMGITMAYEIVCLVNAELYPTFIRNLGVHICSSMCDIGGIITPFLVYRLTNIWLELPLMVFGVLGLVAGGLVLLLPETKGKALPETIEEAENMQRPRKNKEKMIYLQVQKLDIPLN

[6] = Dolutegravir embryo-fetal development study in pregnant rabbits; format: in vivo, rabbit; settings: oral up to 1,000 mg/kg daily, gestation Days 6 to 18
CYP2D6 = CYP2D6 (Homo sapiens, UniProt P10635); test: In vitro inhibition of CYP2D6; format: in vitro ADME; settings: did not inhibit
Sequence of CYP2D6 (P10635 whole entry): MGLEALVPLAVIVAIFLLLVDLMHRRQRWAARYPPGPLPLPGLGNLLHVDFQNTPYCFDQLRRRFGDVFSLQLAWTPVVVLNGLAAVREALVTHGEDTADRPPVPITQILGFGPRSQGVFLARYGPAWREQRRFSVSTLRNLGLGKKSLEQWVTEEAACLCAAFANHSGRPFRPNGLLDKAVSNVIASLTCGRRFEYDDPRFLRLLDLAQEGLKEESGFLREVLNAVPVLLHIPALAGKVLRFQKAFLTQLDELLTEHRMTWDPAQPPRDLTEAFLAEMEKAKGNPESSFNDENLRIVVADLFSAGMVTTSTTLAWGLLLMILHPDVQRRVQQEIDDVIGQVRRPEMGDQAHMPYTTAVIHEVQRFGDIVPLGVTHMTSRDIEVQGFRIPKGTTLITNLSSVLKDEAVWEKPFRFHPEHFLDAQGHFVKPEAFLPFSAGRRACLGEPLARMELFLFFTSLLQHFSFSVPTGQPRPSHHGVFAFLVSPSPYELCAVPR

[7] = Dolutegravir rat pre/post-natal development study; format: in vivo; settings: relative to human exposure at the RHD
Source text: In the rat pre/post-natal development study, decreased body weight of the developing offspring was observed during lactation at a maternally toxic dose (approximately 32 times human exposure at the RHD).

[8] = test system: HIV-1 clinical isolates (group M clades A-G, group O); test: Antiviral activity in cell culture against panel of HIV-1 clinical isolates; format: cell-based; settings: Human immunodeficiency virus 1; 3 in each group of M [clades A-G], and 3 in group O
[9] = target: multidrug resistance protein (MRP)2 (Homo sapiens, UniProt Q92887); test: In vitro inhibition of MRP2; format: in vitro ADME; settings: did not inhibit
UGT1A9 = UGT1A9 (Homo sapiens, UniProt O60656); test: In vitro substrate assessment, UGT1A9; format: in vitro ADME
Sequence of UGT1A9 (O60656 26-530): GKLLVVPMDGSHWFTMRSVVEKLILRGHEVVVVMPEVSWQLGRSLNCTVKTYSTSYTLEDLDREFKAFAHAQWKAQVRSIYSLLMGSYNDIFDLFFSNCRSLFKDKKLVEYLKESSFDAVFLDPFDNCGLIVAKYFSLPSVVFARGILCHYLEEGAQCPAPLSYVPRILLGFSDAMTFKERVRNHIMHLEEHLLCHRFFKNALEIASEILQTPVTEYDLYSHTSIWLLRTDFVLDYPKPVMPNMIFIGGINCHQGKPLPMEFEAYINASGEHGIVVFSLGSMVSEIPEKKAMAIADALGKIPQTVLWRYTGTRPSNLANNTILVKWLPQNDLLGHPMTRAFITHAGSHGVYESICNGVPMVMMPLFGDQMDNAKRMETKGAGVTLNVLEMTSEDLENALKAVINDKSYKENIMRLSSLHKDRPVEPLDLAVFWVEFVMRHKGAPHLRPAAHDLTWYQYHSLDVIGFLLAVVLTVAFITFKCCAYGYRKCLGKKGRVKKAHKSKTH

CYP2C8 = CYP2C8 (Homo sapiens, UniProt P10632); test: In vitro inhibition of CYP2C8; format: in vitro ADME; settings: did not inhibit
Sequence of CYP2C8 (P10632 whole entry): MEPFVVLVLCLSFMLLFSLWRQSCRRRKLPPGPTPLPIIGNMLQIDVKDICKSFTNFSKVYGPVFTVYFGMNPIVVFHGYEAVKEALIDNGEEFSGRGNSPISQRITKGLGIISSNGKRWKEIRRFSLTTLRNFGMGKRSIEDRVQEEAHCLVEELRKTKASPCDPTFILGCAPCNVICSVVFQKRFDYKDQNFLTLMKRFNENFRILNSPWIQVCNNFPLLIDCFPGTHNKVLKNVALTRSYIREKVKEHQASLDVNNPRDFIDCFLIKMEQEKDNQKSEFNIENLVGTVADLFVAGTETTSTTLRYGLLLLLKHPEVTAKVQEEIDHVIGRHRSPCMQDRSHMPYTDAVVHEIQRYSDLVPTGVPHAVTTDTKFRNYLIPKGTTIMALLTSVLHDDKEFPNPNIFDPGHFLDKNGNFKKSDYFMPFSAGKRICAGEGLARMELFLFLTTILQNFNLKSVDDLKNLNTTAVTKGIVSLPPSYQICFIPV

[10] = Single-dose mass balance study of [14C] dolutegravir; format: in vivo, human
[11] = Dolutegravir embryo-fetal development study in pregnant rats; format: in vivo, rat; settings: oral up to 1,000 mg/kg daily, gestation Days 6 to 17
[12] = Population pharmacokinetic analyses; format: in vivo, human
[13] = target: bile salt export pump (BSEP) (Homo sapiens, UniProt O95342); test: In vitro inhibition of BSEP; format: in vitro ADME; settings: did not inhibit
L5178Y mouse lymphoma = test: Mouse lymphoma assay
CYP1A2 = CYP1A2 (Homo sapiens, UniProt P05177); test: In vitro inhibition of CYP1A2; format: in vitro ADME; settings: did not inhibit
Sequence of CYP1A2 (P05177 whole entry): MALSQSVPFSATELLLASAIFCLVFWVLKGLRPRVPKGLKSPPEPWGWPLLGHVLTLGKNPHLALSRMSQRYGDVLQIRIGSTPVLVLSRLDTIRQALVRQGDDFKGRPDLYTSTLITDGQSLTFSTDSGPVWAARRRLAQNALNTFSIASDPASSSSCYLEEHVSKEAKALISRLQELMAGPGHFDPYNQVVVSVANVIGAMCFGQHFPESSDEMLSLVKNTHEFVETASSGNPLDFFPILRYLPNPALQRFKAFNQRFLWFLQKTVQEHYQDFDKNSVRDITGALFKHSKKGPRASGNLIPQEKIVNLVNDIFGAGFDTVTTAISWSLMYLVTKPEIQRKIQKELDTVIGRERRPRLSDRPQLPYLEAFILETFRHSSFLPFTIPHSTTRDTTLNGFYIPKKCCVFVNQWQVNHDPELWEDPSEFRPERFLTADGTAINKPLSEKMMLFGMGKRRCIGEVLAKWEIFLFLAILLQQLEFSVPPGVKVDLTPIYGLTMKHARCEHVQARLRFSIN

BCRP [14] = target: T1, BCRP (Homo sapiens, UniProt Q9UNQ0); test: In vitro substrate assessment, BCRP; format: in vitro ADME
T1 sequence (Q9UNQ0 1-655): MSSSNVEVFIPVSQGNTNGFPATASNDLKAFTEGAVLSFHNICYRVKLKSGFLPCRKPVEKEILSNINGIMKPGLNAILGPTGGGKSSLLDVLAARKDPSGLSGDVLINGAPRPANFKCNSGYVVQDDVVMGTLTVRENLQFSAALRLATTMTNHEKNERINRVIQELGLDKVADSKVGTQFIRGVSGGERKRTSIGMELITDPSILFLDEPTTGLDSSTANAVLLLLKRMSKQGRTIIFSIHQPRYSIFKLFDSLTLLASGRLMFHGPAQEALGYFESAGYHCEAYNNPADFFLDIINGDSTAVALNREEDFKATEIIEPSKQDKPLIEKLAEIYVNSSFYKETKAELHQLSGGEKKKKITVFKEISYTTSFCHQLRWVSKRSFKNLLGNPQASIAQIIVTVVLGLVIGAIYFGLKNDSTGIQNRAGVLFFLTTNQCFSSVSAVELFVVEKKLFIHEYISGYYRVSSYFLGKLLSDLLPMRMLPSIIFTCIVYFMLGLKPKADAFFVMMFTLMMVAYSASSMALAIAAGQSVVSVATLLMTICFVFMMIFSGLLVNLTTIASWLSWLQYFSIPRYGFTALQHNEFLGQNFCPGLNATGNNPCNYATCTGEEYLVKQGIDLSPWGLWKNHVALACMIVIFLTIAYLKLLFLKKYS

BCRP [15] = target: T1, BCRP; test: In vitro inhibition of BCRP; format: in vitro ADME; settings: did not inhibit
OATP1B3 = OATP1B3 (Homo sapiens, UniProt Q9NPD5); test: In vitro inhibition of OATP1B3; format: in vitro ADME; settings: did not inhibit
CYP2C9 = CYP2C9 (Homo sapiens, UniProt P11712); test: In vitro inhibition of CYP2C9; format: in vitro ADME; settings: did not inhibit
Sequence of CYP2C9 (P11712 whole entry): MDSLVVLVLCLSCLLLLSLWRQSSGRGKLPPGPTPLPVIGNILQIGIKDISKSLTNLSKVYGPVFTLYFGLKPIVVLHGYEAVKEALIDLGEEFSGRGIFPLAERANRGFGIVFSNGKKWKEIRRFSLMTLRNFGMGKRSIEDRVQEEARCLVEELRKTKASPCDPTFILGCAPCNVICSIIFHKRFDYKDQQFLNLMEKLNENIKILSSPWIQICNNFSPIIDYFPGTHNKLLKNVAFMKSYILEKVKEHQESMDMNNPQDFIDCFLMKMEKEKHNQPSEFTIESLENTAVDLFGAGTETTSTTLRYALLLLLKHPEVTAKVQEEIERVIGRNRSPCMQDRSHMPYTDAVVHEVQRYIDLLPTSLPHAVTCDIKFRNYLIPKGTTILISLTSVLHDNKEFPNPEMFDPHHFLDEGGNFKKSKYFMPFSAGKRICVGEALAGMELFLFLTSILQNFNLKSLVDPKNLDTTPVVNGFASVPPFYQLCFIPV

MRP4 = MRP4 (Homo sapiens, UniProt O15439); test: In vitro inhibition of MRP4; format: in vitro ADME; settings: did not inhibit

## C[C@@H]1CCO[C@H]2Cn3cc(C(=O)NCc4ccc(F)cc4F)c(=O)c(O)c3C(=O)N12 [Dolutegravir, dolutegravir]
OAT1 and OAT3
  Effect on plasma concentrations of tenofovir or para-amino hippurate, substrates of OAT1 and OAT3: did not alter
[1]
  Genotoxicity, bacterial reverse mutation assay: not genotoxic
[2]
  Hypersensitivity reactions, % of subjects: < 1%
[3]
  EC50: 0.5 nM to 2.1 nM and 0.00021 µg/mL to 0.00085 µg/mL
CYP2C19
  pIC50: < 4.30
HIV
  Antagonism with tested anti-HIV agents: Neither dolutegravir nor lamivudine were antagonistic
[4]; G118R
  Decreased susceptibility to dolutegravir: 10 fold
[4]; substitutions E92Q, S153F or Y, G193E or R263K
  Decreased susceptibility to dolutegravir: up to 4 fold
[5]
  AUC exposure multiple of human (50 mg once daily) with no increases in drug-related neoplasms: 17 times
P-gp
  pIC50: < 4.30
Renal OCT2
  pIC50: 5.71
[6]
  Effects on embryo-fetal development: No adverse effects
CYP2D6
  pIC50: < 4.30
[7]
  Exposure multiple of maternally toxic dose with decreased body weight of developing offspring during lactation: approximately 32 times
[8]
  pEC50: 8.67 to 10.70
[9]
  pIC50: < 4.30
UGT1A9
  Substrate of UGT1A9: substrate
CYP2C8
  pIC50: < 4.30
[10]; single dose
  % of dose excreted as total 14C in feces: 64%
  % of dose excreted as total 14C in urine: 31^b %
  % of dose excreted as unchanged drug in feces: 53%
[10]; single-dose mass balance study of [14C] dolutegravir
  % of dose excreted as unchanged drug in the urine: <1^b %
[11]
  Effects on embryo-fetal development: No adverse effects
[12]; in vivo
  Effect of age on pharmacokinetics: no clinically relevant effect
[12]; studies with the individual components
  Effect of gender and race on pharmacokinetics: no clinically relevant effect
[13]
  pIC50: < 4.30
L5178Y mouse lymphoma
  Genotoxicity/mutagenicity, mouse lymphoma assay: not genotoxic
CYP1A2
  pIC50: < 4.30
BCRP [14]
  Substrate of BCRP: substrate
BCRP [15]
  pIC50: < 4.30
OATP1B3
  pIC50: < 4.30
CYP2C9
  pIC50: < 4.30
MRP4
  pIC50: < 4.30
